Data: patent US11241385B2, “Topical composition and method for treating and preventing atopic dermatitis and infections related to bacteria biofilm” (Johnson & Johnson Consumer Inc., priority 2017, dated 2022)

Tests used:
[1] = tested on: Staphylococcus aureus biofilms; test: Biofilm growth inhibition, wells method (inhibition halos); format: cell-based; conditions: S. Aureus
Method: (§1) 1.3.3 Biofilm Growth Inhibition, Wells Method.
(§2) Protocol disclosed by Hui Zhang was adapted as follow: • a—100 μL of a bacterial strains culture (DO580=0.5) is spread on a LB culture plate. • b—5 mm diameter wells are created with a punch in the gel surface of the culture plate. Each well is attributed to one formulation, the same formulation throughout the test. • c—50 μL of tested formulation is injected per well. • d—24 hours incubation at 37° C. • e—Wells are emptied from the formulations. • f—Growth inhibition halos are measured. • g—Repeat from step c to obtain data over several days (8 days in the present case).
(§3) Tests were conducted on biofilms according to the methodology disclosed on paragraph 1.3.3 (Wells). A 10% solution of Triton X-100 (Aldrich) was submitted to the same test, results after 2 days were used as references.
(§4) Inhibition halos were measured and compared to the inhibition halo obtained for the Triton X-100 solution after 2 days. Inhibition halo differences are expressed in %. Over 100% the inhibition is higher than what is observed for Triton at 2 days; under 100% the inhibition is lower than what is observed for Triton at 2 days. Inhibition was measured at 2 days and 8 days.

[2] = tested on: Staphylococcus Epidermidis biofilms; test: as above; format: cell-based; conditions: S. Epidermidis
Method: as §1, §2, §3, §4

[3] = tested on: Staphylococcus aureus biofilms; test: Biofilm growth, crystal violet method; format: cell-based, Staphylococcus Aureus MFP03; conditions: S. aureus, absorbance 550 nm
Method: 1.3.2 Biofilm Growth, Crystal Violet Method
Experiments on biofilm growth were performed according to the protocol disclosed in G. A. O'Toole, Microtiter Dish Biofilm Formation Assay, J Vis Exp. 2011; (47): 2437. The protocol disclosed by G. A. O'Toole teaches the assay on Pseudomonas aeruginosa, it was adapted to Staphylococcus Aureus MFP03 and Staphylococcus Epidermis MFP04.
Two conditions were studied: • The effect of the emulsions on biofilms in formation: the emulsions are added to the medium from the beginning of the bacterial growth. • The effect of emulsions on established biofilms: the emulsions are added to the bacteria after a first 24-hour incubation that allowed the development of the biofilm.
The protocol taught by G. A. O'Toole is as follows:
1. Grow a culture of the wild-type Pseudomonas aeruginosa or mutant strain overnight in a rich medium (i.e. LB)
2. […] For quantitative assays, we typically use 4-8 replicate wells for each treatment. […] Quantifying the Biofilm 1. […] Quantify absorbance in a plate reader at 550 nm using 30% acetic acid in water as the blank. For the conditions of biofilms in formation: emulsions at 10% (w/w) are added to the medium, and after 24 h of incubation, the optical density is measured. […] Optical density is then measured. Results are expressed in percentage of absorbance relative to the control sample, which is the biofilm itself. […]

Triton X-100
Growth inhibition % (halo), relative to Triton X-100 at 2 days ([1]; 2 days): 100% | Growth inhibition % (halo), relative to Triton X-100 at 2 days ([1]; 8 days): 198.5% | Growth inhibition % (halo), relative to Triton X-100 at 2 days ([2]; 2 days): 100% | Growth inhibition % (halo), relative to Triton X-100 at 2 days ([2]; 8 days): 231% | Absorbance percentage relative to the control (the biofilm itself), established biofilm ([3]; after 24 h biofilm growth medium replaced for 4 hours by emulsion): 177% | Absorbance percentage relative to the control (the biofilm itself), biofilm in formation ([3]; emulsion at 10% (w/w) in medium from start, 24 h incubation): 27%
